Experimental data taken from paper PMC9609273 (Pharmaceuticals, 2022).
In brackets after ≈: the same amount, converted by molar mass.

System: Mtb H37Rv
Assay: microbe, parasite or virus in culture
Type: cell-based, Mycobacterium tuberculosis
Settings: not given

Q: With “3-((2-Isonicotinoylhydrazono)methyl)phenyl quinoline-8-sulfonate [SIH13]” as the compound, how does the MIC read?
A: 0.31 µM

Same assay, conditions: MABA, Mtb H37Rv, one week at 37 °C

Q: With “3-((2-Isonicotinoylhydrazono)methyl)phenyl 2,4,6-trimethylbenzenesulfonate [SIH3]” as the compound, how does the MIC read?
A: 0.62 µM

Q: With “3-((2-Isonicotinoylhydrazono)methyl)phenyl 2,5-dichlorobenzenesulfonate [SIH8]” as the compound, how does the MIC read?
A: 0.62 µM

Q: With “3-((2-Isonicotinoylhydrazono)methyl)phenyl 3-nitrobenzenesulfonate [SIH10]” as the compound, how does the MIC read?
A: 0.62 µM

Q: Which MIC does the source give for “3-((2-Isonicotinoylhydrazono)methyl)phenyl 4-(tert-butyl)benzenesulfonate [SIH2]” here?
A: 0.62 µM

Q: For “3-((2-Isonicotinoylhydrazono)methyl)phenyl 4-acetamidobenzenesulfonate [SIH11]”, which MIC is on record?
A: 0.62 µM

Q: Which MIC does the source give for “3-((2-Isonicotinoylhydrazono)methyl)phenyl 4-bromobenzenesulfonate [SIH5]” here?
A: 0.62 µM

Q: With “3-((2-Isonicotinoylhydrazono)methyl)phenyl 4-chlorobenzenesulfonate [SIH6]” as the compound, how does the MIC read?
A: 0.62 µM

Q: For “3-((2-Isonicotinoylhydrazono)methyl)phenyl 4-iodobenzenesulfonate [SIH7]”, which MIC is on record?
A: 0.62 µM

Q: For “3-((2-Isonicotinoylhydrazono)methyl)phenyl 4-methoxybenzenesulfonate [SIH4]”, which MIC is on record?
A: 0.31 µM

Q: Which MIC does the source give for “3-((2-Isonicotinoylhydrazono)methyl)phenyl 4-methylbenzenesulfonate [SIH1]” here?
A: 0.31 µM

Q: Which MIC does the source give for “3-((2-Isonicotinoylhydrazono)methyl)phenyl 4-nitrobenzenesulfonate [SIH9]” here?
A: 0.62 µM

Q: With “3-((2-Isonicotinoylhydrazono)methyl)phenyl [1,1′-biphenyl]-4-sulfonate [SIH12]” as the compound, how does the MIC read?
A: 0.31 µM

Same assay, conditions: Mycobacterium tuberculosis, 168 h; MABA, Mtb H37Rv, one week at 37 °C

Q: With `NNC(=O)c1ccncc1` [Isoniazid, isonicotinic acid hydrazide, reference compound] as the compound, how does the MIC read?
A: 0.31 µM (≈ 0.0425 µg/mL)

System: Normal Lung Fibroblasts (IMR-90)
Assay: not given
Type: cell-based, human
Settings: MTT, 48 h, triplicate; read-out: Toxicity IC50 IMR-90

Q: For “3-((2-Isonicotinoylhydrazono)methyl)phenyl 2,4,6-trimethylbenzenesulfonate [SIH3]”, which IC50 is on record?
A: > 100 µM

Q: For “3-((2-Isonicotinoylhydrazono)methyl)phenyl 2,5-dichlorobenzenesulfonate [SIH8]”, which IC50 is on record?
A: 100 µM

Q: With “3-((2-Isonicotinoylhydrazono)methyl)phenyl 3-nitrobenzenesulfonate [SIH10]” as the compound, how does the IC50 read?
A: > 100 µM

Q: Which IC50 does the source give for “3-((2-Isonicotinoylhydrazono)methyl)phenyl 4-(tert-butyl)benzenesulfonate [SIH2]” here?
A: 89.5 µM

Q: With “3-((2-Isonicotinoylhydrazono)methyl)phenyl 4-acetamidobenzenesulfonate [SIH11]” as the compound, how does the IC50 read?
A: > 100 µM

Q: With “3-((2-Isonicotinoylhydrazono)methyl)phenyl 4-bromobenzenesulfonate [SIH5]” as the compound, how does the IC50 read?
A: 90.3 µM

Q: With “3-((2-Isonicotinoylhydrazono)methyl)phenyl 4-chlorobenzenesulfonate [SIH6]” as the compound, how does the IC50 read?
A: > 100 µM

Q: With “3-((2-Isonicotinoylhydrazono)methyl)phenyl 4-iodobenzenesulfonate [SIH7]” as the compound, how does the IC50 read?
A: 100 µM

Q: With “3-((2-Isonicotinoylhydrazono)methyl)phenyl 4-methoxybenzenesulfonate [SIH4]” as the compound, how does the IC50 read?
A: > 100 µM

Q: For “3-((2-Isonicotinoylhydrazono)methyl)phenyl 4-methylbenzenesulfonate [SIH1]”, which IC50 is on record?
A: > 100 µM

Q: Which IC50 does the source give for “3-((2-Isonicotinoylhydrazono)methyl)phenyl 4-nitrobenzenesulfonate [SIH9]” here?
A: > 100 µM

Q: Which IC50 does the source give for “3-((2-Isonicotinoylhydrazono)methyl)phenyl [1,1′-biphenyl]-4-sulfonate [SIH12]” here?
A: 57.7 µM

Same assay, conditions: read-out: Toxicity IC50 IMR-90

Q: With “3-((2-Isonicotinoylhydrazono)methyl)phenyl quinoline-8-sulfonate [SIH13]” as the compound, how does the IC50 read?
A: 100 µM

System: Human non-tumorigenic lung epithelial cells (BEAS-2B)
Assay: not given
Type: cell-based
Settings: MTT, 48 h, triplicate; read-out: Toxicity IC50 BEAS-2B

Q: For “3-((2-Isonicotinoylhydrazono)methyl)phenyl 2,4,6-trimethylbenzenesulfonate [SIH3]”, which IC50 is on record?
A: > 100 µM

Q: For “3-((2-Isonicotinoylhydrazono)methyl)phenyl 2,5-dichlorobenzenesulfonate [SIH8]”, which IC50 is on record?
A: > 100 µM

Q: Which IC50 does the source give for “3-((2-Isonicotinoylhydrazono)methyl)phenyl 3-nitrobenzenesulfonate [SIH10]” here?
A: > 100 µM

Q: With “3-((2-Isonicotinoylhydrazono)methyl)phenyl 4-(tert-butyl)benzenesulfonate [SIH2]” as the compound, how does the IC50 read?
A: > 100 µM

Q: Which IC50 does the source give for “3-((2-Isonicotinoylhydrazono)methyl)phenyl 4-acetamidobenzenesulfonate [SIH11]” here?
A: > 100 µM

Q: With “3-((2-Isonicotinoylhydrazono)methyl)phenyl 4-bromobenzenesulfonate [SIH5]” as the compound, how does the IC50 read?
A: > 100 µM

Q: For “3-((2-Isonicotinoylhydrazono)methyl)phenyl 4-chlorobenzenesulfonate [SIH6]”, which IC50 is on record?
A: > 100 µM

Q: With “3-((2-Isonicotinoylhydrazono)methyl)phenyl 4-iodobenzenesulfonate [SIH7]” as the compound, how does the IC50 read?
A: > 100 µM

Q: Which IC50 does the source give for “3-((2-Isonicotinoylhydrazono)methyl)phenyl 4-methoxybenzenesulfonate [SIH4]” here?
A: > 100 µM

Q: With “3-((2-Isonicotinoylhydrazono)methyl)phenyl 4-methylbenzenesulfonate [SIH1]” as the compound, how does the IC50 read?
A: > 100 µM

Q: For “3-((2-Isonicotinoylhydrazono)methyl)phenyl 4-nitrobenzenesulfonate [SIH9]”, which IC50 is on record?
A: > 100 µM

Q: Which IC50 does the source give for “3-((2-Isonicotinoylhydrazono)methyl)phenyl [1,1′-biphenyl]-4-sulfonate [SIH12]” here?
A: > 100 µM

Same assay, conditions: read-out: Toxicity IC50 BEAS-2B

Q: Which IC50 does the source give for “3-((2-Isonicotinoylhydrazono)methyl)phenyl quinoline-8-sulfonate [SIH13]” here?
A: > 100 µM

System: Human Embryonic Kidney cells (HEK 293)
Assay: not given
Settings: MTT

Q: With “3-((2-Isonicotinoylhydrazono)methyl)phenyl 4-methoxybenzenesulfonate [SIH4]” as the compound, how does the “Cytotoxicity against HEK293 (in words)” value read?
A: moderately toxic

Q: With “3-((2-Isonicotinoylhydrazono)methyl)phenyl 4-methylbenzenesulfonate [SIH1]” as the compound, how does the “Cytotoxicity against HEK293 (in words)” value read?
A: moderately toxic

Q: With “3-((2-Isonicotinoylhydrazono)methyl)phenyl [1,1′-biphenyl]-4-sulfonate [SIH12]” as the compound, how does the “Cytotoxicity against HEK293 (in words)” value read?
A: moderately toxic

Same assay, conditions: read-out: Toxicity IC50 HEK293

Q: Which IC50 does the source give for “3-((2-Isonicotinoylhydrazono)methyl)phenyl quinoline-8-sulfonate [SIH13]” here?
A: 58.3 µM

Same assay, conditions: read-out: Toxicity IC50 HEK293; MTT, 48 h, triplicate

Q: For “3-((2-Isonicotinoylhydrazono)methyl)phenyl 2,4,6-trimethylbenzenesulfonate [SIH3]”, which IC50 is on record?
A: 100 µM

Q: With “3-((2-Isonicotinoylhydrazono)methyl)phenyl 2,5-dichlorobenzenesulfonate [SIH8]” as the compound, how does the IC50 read?
A: > 100 µM

Q: For “3-((2-Isonicotinoylhydrazono)methyl)phenyl 3-nitrobenzenesulfonate [SIH10]”, which IC50 is on record?
A: > 100 µM

Q: With “3-((2-Isonicotinoylhydrazono)methyl)phenyl 4-(tert-butyl)benzenesulfonate [SIH2]” as the compound, how does the IC50 read?
A: > 100 µM

Q: For “3-((2-Isonicotinoylhydrazono)methyl)phenyl 4-acetamidobenzenesulfonate [SIH11]”, which IC50 is on record?
A: > 100 µM

Q: Which IC50 does the source give for “3-((2-Isonicotinoylhydrazono)methyl)phenyl 4-bromobenzenesulfonate [SIH5]” here?
A: 100 µM

Q: Which IC50 does the source give for “3-((2-Isonicotinoylhydrazono)methyl)phenyl 4-chlorobenzenesulfonate [SIH6]” here?
A: > 100 µM

Q: With “3-((2-Isonicotinoylhydrazono)methyl)phenyl 4-iodobenzenesulfonate [SIH7]” as the compound, how does the IC50 read?
A: > 100 µM

Q: For “3-((2-Isonicotinoylhydrazono)methyl)phenyl 4-methoxybenzenesulfonate [SIH4]”, which IC50 is on record?
A: 40.8 µM

Q: For “3-((2-Isonicotinoylhydrazono)methyl)phenyl 4-methylbenzenesulfonate [SIH1]”, which IC50 is on record?
A: 57.2 µM

Q: Which IC50 does the source give for “3-((2-Isonicotinoylhydrazono)methyl)phenyl 4-nitrobenzenesulfonate [SIH9]” here?
A: 100 µM

Q: For “3-((2-Isonicotinoylhydrazono)methyl)phenyl [1,1′-biphenyl]-4-sulfonate [SIH12]”, which IC50 is on record?
A: 52.4 µM

System: not given
Assay: not given
Settings: 6.0 × 10^–5 M in DMSO and 28% ethanol-water, 24 h, 25 °C

Q: With “3-((2-Isonicotinoylhydrazono)methyl)phenyl 4-methoxybenzenesulfonate [SIH4]” as the compound, how does the “Change in λmax values (stability of hydrazone)” value (“Change in λmax values” for short) read?
A: no significant change in λmax values

Q: For “3-((2-Isonicotinoylhydrazono)methyl)phenyl 4-methylbenzenesulfonate [SIH1]”, which “Change in λmax values” value is on record?
A: no significant change in λmax values

Q: With “3-((2-Isonicotinoylhydrazono)methyl)phenyl [1,1′-biphenyl]-4-sulfonate [SIH12]” as the compound, how does the “Change in λmax values” value read?
A: no significant change in λmax values
